Earlier results on one compound are cited in patent EP2018866A1, “Pharmaceutical compositions containing voriconazole” (SANDOZ AG, priority 2007, dated 2009).

In brackets after ≈: the same amount, converted by molar mass. Like-named read-outs stand apart in the source and are kept apart here.

Regarding `C[C@@H](c1ncncc1F)[C@](O)(Cn1cncn1)c1ccc(F)cc1F` [Voriconazole, (2R,3S)-2-(2,4-Difluorophenyl)-3-(5-fluoro-4-pyrimidinyl)-1-(1H-1,2,4-triazol-1-yl)-butan-2-ol], the aqueous solubility was 200 µg/mL (≈ 573 µM) (at a pH 3) and 610 µg/mL (≈ 1750 µM) (at a pH 7).
